Assay results as given in US11872237B2, “Pharmaceutical composition and preparation method thereof” (Ascentage Pharma (Suzhou) Co., Ltd., priority 2019, dated 2024).
≈ marks a conversion by molar mass, not a printed value.

How the values were obtained:
[1] = Effect of pH value on the solubility of Compound 1 (solution appearance); assay type: physicochemical
Method: (§1) Experimental method: Referring to the process of preparation of solution in Preparation Example 1, the preparation was carried out in an amount of 10 vials, and the solutions with different pH values were prepared according to the following formulations (contents in each vial), and the properties of the prepared solutions were observed.
The thicker of the milky white, the worse of the solubility.

[2] = General statements on solubility and stability of Compound 1 versus pH; assay type: physicochemical
[3] = Solubility of Compound 1 in different co-solvents (excess compound, HPLC analysis); assay type: physicochemical; settings: organic solvent or mixture, thermodynamic from solid, about half an hour
From the text: 2. The effects of different co-solvents on the solubility of Compound 1 were observed. The specific results are as follows.
Experimental method: Compound 1 was taken in excess amount, suspended in various solvents, sampled and filtered after about half an hour, and analyzed by HPLC analysis.

[4] = Effect of surfactant on solubility and clarity of Compound 1 (appearance observation); assay type: physicochemical; settings: PEG400, ethanol, mannitol
Method: 3. The effects of the Polyoxyl 35 Castor Oil ester used by the present invention as surfactant on the solubility and clarity of the compound 1 were further tested. The specific results are as follows.
as §1, with “vial) for appearance observation.” for “vial), and the properties of the prepared solutions were observed.”
In addition, the effect of Tween80 as surfactant of the present invention on the solubility and clarity of compound 1 was tested. Specific results are as follows.
Experimental Method: referring to the process of preparation of solution in Preparation Example 1, the solution was prepared according to the formulation in the Table below for appearance observation.
Similarly, the effect of Solutol HS-15 as surfactant of the present invention on the solubility and clarity of compound 1 was tested. Specific results are as follows.

cancer cells = settings: see WO2014113413; cited from earlier work

solubility of Compound 1 ([1]; pH 7.888, Table 1 formulation): poor
solubility of Compound 1 ([1]; pH 8.528, Table 1 formulation): acceptable
solubility of Compound 1 ([1]; pH 9.016, Table 1 formulation): acceptable
solubility of Compound 1 ([1]; pH 9.326, Table 1 formulation): best solubility
solubility ([2]; acidic or near-neutral solutions): extremely poorly soluble
dissolution ([2]; alkaline conditions): greatly improved
stability ([2]; alkaline conditions): unstable
solubility ([3]; solvent Ethanol, 25° C.): 850 µg/mL (≈ 663 µM)
solubility ([3]; solvent Glycerin, 25° C.): 450 µg/mL (≈ 351 µM)
solubility ([3]; solvent PEG400, 25° C.): 16800 µg/mL (≈ 13100 µM)
solubility ([3]; solvent Propylene glycol, 25° C.): 3100 µg/mL (≈ 2420 µM)
Solution appearance ([4]; Table 3a: compound 1 10 mg/ml, Tween80 50 mg, pH 9.0): Transparent solution
Solution appearance ([4]; Table 3b: compound 1 10 mg/ml, Solutol HS-15 240 mg, pH 8.7): Transparent solution
Compound: Cc1c(S(C)(=O)=O)c(-c2cc(F)cc(N3CCN(c4ccc(NS(=O)(=O)c5ccc(N[C@H](CCN6CCC(C(=O)OCCCP(=O)(O)O)CC6)CSc6ccccc6)c(S(=O)(=O)C(F)(F)F)c5)cc4)CC3)c2)c(-c2ccc(Cl)cc2)n1C(C)C [Compound 1, (3R)-1-(3-(4-(4-(4-(3-(2-(4-chlorophenyl)-1-isopropyl-4-methylsulfonyl-5-methyl-1H-pyrrol-3-yl)-5-fluorophenyl)piperazin-1-yl)-phenylaminosulfonyl)-2-trifluoromethylsulfonyl-anilino)-4-phenylthio-butyl)-piperidine-4-carboxylic acid 3-phosphonopropyl ester]
inducing apoptosis of cancer cells (cancer cells): effective
